Legend:
WT zebrafish embryos = experiment: WT zebrafish embryo development / teratogenicity; type: in vivo, zebrafish (Danio rerio); details: in words; at concentrations active in fli1:EGFP or mpo:GFP assays
Excerpt: To determine the effects of the candidate compounds on embryonic development, two in vivo model systems (developing zebrafish and chicken embryos) were utilized.
Malformations in the development of the zebrafish embryo were noted, including inhibition of eye, otic vesicle and fin development (FIGS. 7A-7F). […] Embryos were screened at concentrations previously determined, in this study, to be anti-angiogenic or anti-inflammatory in the fli1:EGFP and mpo:GFP assays respectively.
Concentrations used in the WT zebrafish and chicken embryo assays to assess for teratogenesis, were equal to or higher than those utilized in the fil1:EGFP and mpo:GFP zebrafish assays

[1] = tested on: rat aortic rings (microvessel outgrowth); experiment: Rat aortic ring assay of angiogenesis; type: cell-based, Sprague Dawley rats; details: 50 μM, 5 days
Description: Matrigel® matrix (BD Biosciences) was defrosted overnight on ice. The wells of a 24 well plate were coated with 300 μL of the gel using frozen pipette tips. The gel was left to set at room temperature. When required, six week old male Sprague Dawley rats were euthanized by CO2 and decapitation. The blood was drained from the tissue and the descending aorta dissected. The aorta was cleaned in EBM media, the over lying fascia removed, and the tissue was sliced into 1-mm sections using a sterile scalpel and tweezers. The sections were rinsed in clean EBM then placed onto the coagulated gel. Another 300 μL of Matrigel® matrix was pipetted onto the ring and left to set for 30 minutes. EGM™-II endothelial growth medium (500 μL) was added to each well. The rings were incubated overnight at 37° C. The next day the media was removed and replaced with EBM containing compounds (50 μM) or media. TNP-470 ((Chloracetyl) carbamic acid (3R,4S,5S,6R)-5-methoxy-4-[(2R,3R)-2-methyl-3-(3-methyl-2-butenyl)oxiranyl]-1-oxaspiro[2.5]oct-6-yl ester) was used as a positive control. The rings were incubated in the compounds for 5 days. On day 5 the rings were imaged using an EVOS™ scope. The vessel outgrowth was quantified by binary conversion in Image J open-source image processing software and average outgrowth calculated (FIG. 9).

With `Nc1cccc2c1CN(C13CC4CC(CC(C4)C1)C3)C2=O` [Compound 77, 2,3-Dihydro-4-amino-2-(tricyclo[3.3.1.1^3,7]dec-1-yl)-1H-isoindol-1-one] the “effect on development / mortality of zebrafish embryos” value (WT zebrafish embryos) was “no apparent effect on the development of the zebrafish embryo”.

Work on `O=C1c2ccccc2CN1C12CC3CC(CC(O)(C3)C1)C2` [Compound 86, 2,3-Dihydro-2-(tricyclo[3.3.1.1^3,7]dec-1-hydroxy-3-yl)-1H-isoindol-1-one] yielded a microvessel outgrowth [1] of 17.3%.

From patent US11440880B2, “Thalidomide analogs and methods of use” (The USA, as represented by the Secretary, Department of …, priority 2015, dated 2022)
